Reference: patent US8822526B2, “Synergistic pharmaceutical combination for the treatment of cancer” (Piramal Enterprises Limited, priority 2007, dated 2014)
pIC50: −log10 of the molar value.

Assays:
[1] = test system: human non-small cell lung carcinoma H-460 cells; assay: In vitro cytotoxicity assay (MTS); details: for % Cytotoxicity: then complete medium 45 hours
Experimental: The cytotoxicity assay used was MTS (3-(4,5-dimethylthiazol-2-yl)-5-(3-carboxymethoxyphenyl)-2-(4-sulfophenyl)-2H-tetrazolium, inner salt) assay. The human non-small cell lung carcinoma H-460 cells were seeded at a density of 1500 cells/well in 180 μL of culture medium in 96-well plate and incubated overnight to allow the cells to adhere. Varying concentrations of the drugs contained in the combination were added to the wells and incubated for an appropriate period of time in humidified 5% CO2 incubator at 37° C. in case of a single drug exposure. […] Control wells were treated with a vehicle. At the end of the incubation period, the medium was removed from the wells and 20 μL of MTS (2 mg/mL in phosphate buffer saline, pH 6-6.5 and filter sterilized) and 1 μL of phenazine methosulfate (PMS, 3 mM in phosphate buffered saline, pH 7.3 and filter sterilized) was added to each well and the total volume was adjusted to 200 μL with complete medium. The plate was incubated for 2-4 hours in humidified 5% CO2 incubator at 37° C.
(§1) After completion of the drugs treatment i.e. at the end of 96 hours the plates were processed for MTS viability assay and the percent cytotoxicity was calculated as compared to control.
as §1
(§2) The human non-small cell lung carcinoma H-460 cells were seeded at a density of 1500 cells/well. […] After completion of the drugs treatment i.e. at the end of 120 hours the plates were processed for MTS viability assay and the percent cytotoxicity was calculated as compared to control.
as §2
The human non-small cell lung carcinoma H-460 cells were seeded at a density of 1500 cells/well. […] After completion of the drugs treatment i.e. at the end of 120 hours, the plates were processed for MTS viability assay and the percent cytotoxicity was calculated as compared to control.
(§3) After completion of the drugs treatment i.e. at the end of 48 hours the plates were processed for MTS viability assay and the percent cytotoxicity was calculated as compared to control.
The plates were processed for MTS viability assay and the percent cytotoxicity was calculated as compared to control.
as §3
The human non-small cell lung carcinoma H-460 cells were seeded at a density of 1500 cells/well. As per Table 16A the cells were first treated with either of the drugs alone i.e. with doxorubicin or flavopiridol alone. Doxorubicin treatment was for the first 24 hours followed by complete medium for 96 hours while in case of flavopiridol, the first 24 hours was in complete medium followed by flavopiridol for the next 96 hours. […] After completion of the drugs treatment i.e. at the end of 120 hours the plates were processed for MTS viability assay and the percent cytotoxicity was calculated as compared to control.
As per Table 16B the cells were first treated with either of the drugs alone i.e. with doxorubicin or flavopiridol alone. Flavopiridol treatment was for the first 96 hours followed by complete medium for 24 hours while in case of doxorubicin, the first 96 hours was in complete medium followed by doxorubicin for 24 hours. […] After completion of the drugs treatment i.e. at the end of 120 hours, the plates were processed for MTS viability assay and the percent cytotoxicity was calculated as compared to control.
The human non-small cell lung carcinoma H-460 cells were seeded at a density of 1500 cells/well.

[2] = test system: human pancreatic (Panc-1) cell line; assay: In vitro cytotoxicity assay (MTS); type: cell-based; details: then complete medium 72 hours
[3] = test system: pancreatic cells (Panc-1); assay: Analysis of cell cycle distribution and flow cytometry (sub G1 apoptosis); type: cell-based, human; details: FIG. 3: 70 nM gemcitabine alone (24 hours); 300 nM compound A alone (72 hours); combination 70 nM gemcitabine (24 hours) followed by 300 nM compound A (72 hours)

## CC(=O)O[C@@]12CO[C@@H]1C[C@H](O)[C@@]1(C)C(=O)[C@H](O)C3=C(C)[C@@H](OC(=O)[C@H](O)[C@@H](NC(=O)OC(C)(C)C)c4ccccc4)C[C@@](O)([C@@H](OC(=O)c4ccccc4)[C@H]21)C3(C)C [Docetaxel]
[1]; Docetaxel 0.1 nM first 3 hours, 3000 cells/well
  % Cytotoxicity: 0%
[1]; Docetaxel 3 nM first 3 hours, 3000 cells/well
  % Cytotoxicity: 2%

## Nc1ccn([C@@H]2O[C@H](CO)[C@@H](O)C2(F)F)c(=O)n1 [Gemcitabine, 2′-deoxy-2′,2′-difluorocytidine]
[2]; Gemcitabine 30 nM first 24 hours
  % Cytotoxicity: 2%
[2]; Gemcitabine 70 nM first 24 hours
  % Cytotoxicity: 18%
[2]; Gemcitabine 100 nM first 24 hours
  % Cytotoxicity: 38%
[2]; Gemcitabine 200 nM first 24 hours
  % Cytotoxicity: 78%
[3]
  apoptosis (sub G1 phase): 1.7%

## CN1CC[C@H](c2c(O)cc(O)c3c(=O)cc(-c4ccccc4Cl)oc23)[C@H](O)C1 [Flavopiridol]
[1]; H-460 cells, 48 hours treatment
  IC30 concentration after 48 hours treatment: 0.2 µM
[1]; Homo sapiens, NCI-H460, 48 h, read-out: IC50 concentration after 48 hours treatment, H-460 cells, 48 hours treatment
  pIC50: 6.46
[1]; Homo sapiens, NCI-H460, 120 h, Flavopiridol 200 nM alone for 120 hours
  cytotoxicity at 0.2 µM: 39%
[1]; Homo sapiens, NCI-H460, 120 h, Flavopiridol 350 nM alone for 120 hours
  cytotoxicity at 0.35 µM: 81%

## CC(=O)O[C@H]1C(=O)[C@@]2(C)[C@H]([C@H](OC(=O)c3ccccc3)[C@]3(O)C[C@H](OC(=O)[C@H](O)[C@@H](NC(=O)c4ccccc4)c4ccccc4)C(C)=C1C3(C)C)[C@]1(OC(C)=O)CO[C@@H]1C[C@@H]2O [Paclitaxel]
[1]; Paclitaxel 10 nM first 3 hours, 1500 cells/well
  % Cytotoxicity: 10%
